Measured values from US20260132129A1 (Genesis Therapeutics, Inc., priority 2022, published 2026).

Biological target: T1, PI3Kα H1047R (T47D cells) (Homo sapiens, UniProt P42336, H1047R)
T1 construct: endogenous in cells; host or cells: T47D cells
Assay: PI3Kα cellular assay: pAKT HTRF in T47D cells after EGF stimulation
Assay type: cell-based
Details: for IC50: T47D cells (PI3Kα H1047R), pAKT S473 HTRF
Method: SKBR3 or T47D cells are seeded in DMEM containing 10% FBS at 25k cells/well into 96-well cell culture format. Cells are incubated overnight at 37° C. in a 5% CO2 incubator and the following day cell media is aspirated, adherent cells are washed 1× with room temperature PBS prior to serum-free media application. Cells are returned to 37° C. 5% CO2 incubator and incubated a further 16 hrs. Compounds are added to serum starved adherent cells with a top dose of 10,000 nM and 3× multiple dose reductions for a minimum dose of 0.5 nM diluted in DMSO. Cell/compound incubation continues for 1 hr in a 37° C., 5% CO2 incubator prior to 10 minute PIK3CA stimulation with 20 ng/ml EGF. Cells treated with 0.1% DMSO and 20 ng/mL EGF are employed as negative control, cells treated with 10 uM Alpelisib and 20 ng/mL EGF are employed as a positive control. After 10 mins, plates are removed from incubator and cells are lysed with buffer and shaking 45 minutes. […] 384 well plate is left overnight at room temperature before reading HTRF on an Envision plate reader.
ND denotes value not determined with that assay for the specified compound; • for T47D (H1047R) selectivity over SKBR3 (WT): A denotes >20-fold; B denotes 20-fold≥value>5-fold; C denotes ≤5-fold. ND denotes value not determined with that assay for the specified compound; and • for T47D pAKT lipophilic efficiency (LiPE): A denotes >4; B denotes 4≥value>2; C denotes ≤2. ND denotes value not determined with that assay for the specified compound.

[1] = selectivity of T47D (H1047R) over SKBR3 (WT) pAKT IC50
[2] = selectivity T47D (H1047R) over SKBR3 (WT), pAKT HTRF
[3] = 1 hr compound, 20 ng/ml EGF 10 min

T1 sequence (P42336 whole entry H1047R): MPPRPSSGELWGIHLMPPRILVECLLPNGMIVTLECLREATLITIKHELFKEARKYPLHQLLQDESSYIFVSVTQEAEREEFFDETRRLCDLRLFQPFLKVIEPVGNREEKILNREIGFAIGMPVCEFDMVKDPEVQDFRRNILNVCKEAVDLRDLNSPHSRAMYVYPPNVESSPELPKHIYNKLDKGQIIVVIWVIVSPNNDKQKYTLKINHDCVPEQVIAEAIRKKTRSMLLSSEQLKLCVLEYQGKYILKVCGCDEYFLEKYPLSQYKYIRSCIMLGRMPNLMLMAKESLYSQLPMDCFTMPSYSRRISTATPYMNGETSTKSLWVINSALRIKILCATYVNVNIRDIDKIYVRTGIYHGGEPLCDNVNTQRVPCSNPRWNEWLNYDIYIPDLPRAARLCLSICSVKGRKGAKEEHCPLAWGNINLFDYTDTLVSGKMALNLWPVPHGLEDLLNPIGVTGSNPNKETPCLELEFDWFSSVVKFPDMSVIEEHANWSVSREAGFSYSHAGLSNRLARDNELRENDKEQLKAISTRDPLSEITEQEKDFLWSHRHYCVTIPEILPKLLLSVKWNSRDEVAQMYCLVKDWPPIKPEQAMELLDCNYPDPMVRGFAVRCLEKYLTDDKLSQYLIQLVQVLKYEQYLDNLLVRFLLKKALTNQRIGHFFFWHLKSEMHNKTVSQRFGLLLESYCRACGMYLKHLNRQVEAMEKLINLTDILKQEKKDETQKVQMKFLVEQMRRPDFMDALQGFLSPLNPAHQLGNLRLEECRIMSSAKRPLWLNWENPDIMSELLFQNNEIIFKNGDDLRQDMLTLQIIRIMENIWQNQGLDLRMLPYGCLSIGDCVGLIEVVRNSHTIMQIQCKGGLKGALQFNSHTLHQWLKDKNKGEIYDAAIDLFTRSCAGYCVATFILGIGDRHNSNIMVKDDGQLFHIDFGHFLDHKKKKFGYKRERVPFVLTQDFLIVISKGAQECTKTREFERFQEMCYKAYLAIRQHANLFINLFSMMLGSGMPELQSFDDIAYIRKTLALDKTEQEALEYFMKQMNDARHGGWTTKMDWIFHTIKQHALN
T1 sequence (P27986 whole entry partner): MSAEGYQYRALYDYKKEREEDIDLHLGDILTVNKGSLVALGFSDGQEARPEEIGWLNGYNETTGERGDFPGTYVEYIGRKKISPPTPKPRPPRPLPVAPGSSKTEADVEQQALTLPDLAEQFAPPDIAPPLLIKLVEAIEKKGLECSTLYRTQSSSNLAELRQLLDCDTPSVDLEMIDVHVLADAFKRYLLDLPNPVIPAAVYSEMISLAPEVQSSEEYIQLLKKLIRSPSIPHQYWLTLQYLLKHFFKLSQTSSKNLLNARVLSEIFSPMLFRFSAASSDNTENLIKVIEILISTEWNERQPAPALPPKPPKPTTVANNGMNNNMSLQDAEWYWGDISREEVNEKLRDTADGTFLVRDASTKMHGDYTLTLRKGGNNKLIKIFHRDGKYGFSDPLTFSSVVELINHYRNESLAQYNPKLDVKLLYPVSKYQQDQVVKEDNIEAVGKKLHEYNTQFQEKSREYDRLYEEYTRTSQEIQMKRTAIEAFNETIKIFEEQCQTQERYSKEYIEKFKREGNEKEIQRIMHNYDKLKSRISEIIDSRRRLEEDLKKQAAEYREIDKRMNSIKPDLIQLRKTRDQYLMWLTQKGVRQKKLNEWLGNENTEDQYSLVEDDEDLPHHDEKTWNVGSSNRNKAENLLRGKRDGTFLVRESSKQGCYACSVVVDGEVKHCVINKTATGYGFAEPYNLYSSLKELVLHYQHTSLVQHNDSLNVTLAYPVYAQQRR

Row | SMILES | IC50 (EGF stimulation) [nM] | T47D pAKT S473 HTRF IC50 (H1047R): T47D (H1047R) selectivity over SKBR3 (WT) [1] | T47D pAKT S473 HTRF IC50 (H1047R): T47D (H1047R) selectivity over SKBR3 (WT) [2] | IC50 [3] [nM]
1 | Cc1cc([C@H](C)Nc2ccccc2-c2ccnnc2)c2nc(N3Cc4ccccc4C3)c(C)c(=O)n2c1 (single isomer, unassigned) [Compound 848] | < 100 | A (A denotes >20-fold) |  | 
2 | Cc1cc([C@@H](C)Nc2ccccc2S(N)(=O)=O)c2nc(N3Cc4ccccc4C3)c(C)c(=O)n2c1 (single isomer, unassigned) [Compound 856] | < 100 | A (A denotes >20-fold) |  | 
3 | Cc1cc([C@@H](C)Nc2ccccc2C(=O)O)c2nc(-c3ccc4c(c3)c(C)nn4C3CC3)c(C)c(=O)n2c1 (single isomer, unassigned) [Compound 892] | < 100 | A (A denotes >20-fold) |  | 
4 | Cc1cc([C@@H](C)Nc2ccccc2C(=O)O)c2nc(-c3ccc4c(c3)c(C)cn4C)c(C)c(=O)n2c1 (single isomer, unassigned) [Compound 902] | < 100 | A (A denotes >20-fold) |  | 
5 | Cc1cc([C@@H](C)Nc2ccccc2C(=O)O)c2nc(-c3ccc(F)c(C#N)c3)c(C)c(=O)n2c1 (single isomer, unassigned) [Compound 947] | < 100 | A (A denotes >20-fold) |  | 
6 | Cc1cc([C@@H](C)Nc2ccccc2C(=O)O)c2nc(-c3cccnc3)c(C)c(=O)n2c1 (single isomer, unassigned) [Compound 949] | < 100 | A (A denotes >20-fold) |  | 
7 | Cc1cc([C@@H](C)Nc2ccccc2C(=O)O)c2nc(-c3cnc(C)c(Cl)c3)c(C)c(=O)n2c1 (single isomer, unassigned) [Compound 951] | < 100 | A (A denotes >20-fold) |  | 
8 | Cc1cc([C@@H](C)Nc2ccccc2C(=O)O)c2nc(-c3ccnc(C4CC4)c3)c(C)c(=O)n2c1 (single isomer, unassigned) [Compound 953] | < 100 | A (A denotes >20-fold) |  | 
9 | Cc1cc([C@@H](C)Nc2ccccc2C(=O)O)c2nc(-c3ccc(Cl)cc3)c(C)c(=O)n2c1 (single isomer, unassigned) [Compound 963] | < 100 | A (A denotes >20-fold) |  | 
10 | Cc1cc([C@@H](C)Nc2ccccc2C(=O)O)c2nc(-c3ccc(Cl)cc3F)c(C)c(=O)n2c1 (single isomer, unassigned) [Compound 965] | < 100 | A (A denotes >20-fold) |  | 
11 | Cc1cc([C@@H](C)Nc2ccccc2C(=O)O)c2nc(-c3cccc(C#N)c3)c(C)c(=O)n2c1 (single isomer, unassigned) [Compound 967] | < 100 | A (A denotes >20-fold) |  | 
12 | Cc1cc([C@@H](C)Nc2ccccc2C(=O)O)c2nc(-c3cccc(F)c3)c(C)c(=O)n2c1 (single isomer, unassigned) [Compound 969] | < 100 | A (A denotes >20-fold) |  | 
13 | Cc1cc([C@@H](C)Nc2ccccc2C(=O)O)c2nc(-c3cccc(C4CC4)c3)c(C)c(=O)n2c1 (single isomer, unassigned) [Compound 971] | < 100 | A (A denotes >20-fold) |  | 
14 | Cc1cc([C@@H](C)Nc2ccccc2C(=O)O)c2nc(-c3ccc(C4CC4)nc3)c(C)c(=O)n2c1 (single isomer, unassigned) [Compound 973] | < 100 | A (A denotes >20-fold) |  | 
15 | Cc1cc([C@@H](C)Nc2ccccc2C(=O)O)c2nc(-c3ccc(C#N)nc3)c(C)c(=O)n2c1 (single isomer, unassigned) [Compound 975] | < 100 | A (A denotes >20-fold) |  | 
16 | Cc1cc([C@H](C)Nc2ccccc2C(=O)O)c2nc(-c3cnc(C#N)c(Cl)c3)c(C)c(=O)n2c1 (single isomer, unassigned) [Compound 978] | < 100 | A (A denotes >20-fold) |  | 
17 | Cc1cc([C@H](C)Nc2ccccc2C(=O)O)c2nc(C3Cc4ccccc4C3)c(C3CC3)c(=O)n2c1 (single isomer, unassigned) [Compound 983] | 500 to 2000 | B (B denotes 20-fold≥value>5-fold) |  | 

Row | SMILES | IC50 (EGF stimulation) [nM] | T47D pAKT S473 HTRF IC50 (H1047R): T47D (H1047R) selectivity over SKBR3 (WT) [1] | T47D pAKT S473 HTRF IC50 (H1047R): T47D (H1047R) selectivity over SKBR3 (WT) [2] | IC50 [3] [nM]
18 | Cc1cc([C@@H](C)Nc2ccccc2C(=O)O)c2nc(OC3CCOCC3)c(C)c(=O)n2c1 (single isomer, unassigned) [Compound 1370] | > 2000 |  | C (C denotes ≤5-fold) | 
19 | Cc1cc([C@H](C)Nc2ccccc2C(=O)O)c2nc(OC3CCOCC3)c(C)c(=O)n2c1 (single isomer, unassigned) [Compound 1371] | < 100 |  | A (A denotes >20-fold) | 
20 | Cc1cc([C@@H](C)Nc2cccc3onc(O)c23)c2nc(-c3cccc(F)c3)c(C)c(=O)n2c1 (single isomer, unassigned) [Compound 1374] | 100 to 500 |  | A (A denotes >20-fold) | 
21 | Cc1cc([C@H](C)Oc2ccccc2C2(O)CS(=O)(=O)C2)c2nc(-c3cccc(F)c3)c(C)c(=O)n2c1 (single isomer, unassigned) [Compound 1393] | < 100 |  | A (A denotes >20-fold) | 
22 | Cc1cc([C@@H](C)Nc2ccccc2C(=O)O)c2nc(N3CCCCC3)cc(=O)n2c1 [Compound 7] |  |  | A (A denotes >20-fold) | 100 to 500
23 | Cc1cc([C@H](C)Nc2ccccc2C(=O)O)c2nc(N3CCCCC3)cc(=O)n2c1 [Compound 8] |  |  | C (C denotes ≤5-fold) | > 2000
24 | CC1=CN2C(=O)CC(N3CCOCC3)N=C2C(C(C)Nc2ccccc2)=C1 (centres unmarked) [Compound 47] |  |  | C (C denotes ≤5-fold) | > 2000
25 | CCC(Nc1ccccc1C(=O)O)c1cc(C)cn2c(=O)cc(N3CCOCC3)nc12 (centres unmarked) [Compound 132] |  |  | C (C denotes ≤5-fold) | 500 to 2000
26 | Cc1cc(C(C)Nc2ccccc2S(C)(=O)=O)c2nc(N3CCOCC3)cc(=O)n2c1 (centres unmarked) [Compound 134] |  |  | B (B denotes 20-fold≥value>5-fold) | 
27 | Cc1cc(C(C)Nc2ccccc2C(=O)O)c2nc(N3CCS(=O)(=O)CC3)cc(=O)n2c1 (centres unmarked) [Compound 137] |  |  | C (C denotes ≤5-fold) | > 2000
28 | Cc1cc([C@@H](C)Nc2ccccc2C(=O)O)c2nc(N3CCS(=O)(=O)CC3)cc(=O)n2c1 [Compound 138] |  |  | C (C denotes ≤5-fold) | > 2000
29 | Cc1cc([C@H](C)Nc2ccccc2C(=O)O)c2nc(N3CCS(=O)(=O)CC3)cc(=O)n2c1 [Compound 139] |  |  | C (C denotes ≤5-fold) | > 2000
30 | Cc1cc(C(C)Nc2ccccc2C(=O)O)c2nc(N3CCSCC3)cc(=O)n2c1 (centres unmarked) [Compound 140] |  |  | A (A denotes >20-fold) | 100 to 500
31 | Cc1cc(C(C)Nc2ccccc2C(=O)O)c2nc(-c3ccc[nH]c3=O)cc(=O)n2c1 (centres unmarked) [Compound 144] |  |  | C (C denotes ≤5-fold) | > 2000
32 | Cc1cc(C(C)Nc2ccccc2C(=O)O)c2nc(-c3cnc(N)nc3)cc(=O)n2c1 (centres unmarked) [Compound 145] |  |  | B (B denotes 20-fold≥value>5-fold) | 500 to 2000
33 | Cc1cc([C@@H](C)Nc2ccccc2C(N)=O)c2nc(N3CCOCC3)cc(=O)n2c1 [Compound 146] |  |  | C (C denotes ≤5-fold) | > 2000
